The text below walks through data of patent US20250115597A1, “TYK2 INHIBITORS AND COMPOSITIONS AND METHODS THEREOF” (LYNK PHARMACEUTICALS CO. LTD., priority 2021, published 2025).

Structures are written as SMILES. Where two headings read alike, the source gives them in different places.

Data set [1] has as its target T1, Ba/F3-FL-TYK2-P760L cells (Homo sapiens, UniProt P29597, P760L, cells depend on it).
T1 construct: BaF3-FL-T2P760L (nM)
Kind of data set: Anti-proliferative assay, Ba/F3-FL-TYK2-P760L cells (Cell-Titer Glo). The class given is cell-based. The settings on record: 72 h, read-out: BaF3-FL-T2P760L IC50. The procedure, abridged: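 Ba/F3 cells made IL-3-independent by TEL-fused or full-length mutant JAK-family kinases, seeded at 2000/well and dosed after 24 h with 9 three-fold dilutions topping at 20 μM. Viability after 72 h at 37 °C, 5% CO2 by Cell-Titer Glo ATP luminescence.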

Data set [2] relates to pSTAT1. Nature of the data set: Phosphorylation inhibition of STAT in human whole blood, IFN-alpha stimulated (flow cytometry). The format is cell-based. The settings on record: 20 min, read-out: IC50 on pSTAT1 inhibition in h WB. The procedure, abridged: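 Freshly prepared PBMC or freshly collected whole blood stimulated with human Universal Type I IFN-alpha for 20 min, then fixed, permeabilized on ice and stained for CD3 and pSTAT1 (Y701). pSTAT1 read by flow cytometry; IC50 from 4-parameter logistic fit.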
On the technique in general: In flow cytometry, cells or beads pass a laser one at a time.

The subject of data set [3] is pSTAT1. Nature of the data set: Phosphorylation inhibition of STAT in human PBMC, IFN-alpha stimulated (flow cytometry). The format is cell-based. The settings on record: 20 min, read-out: IC50 on pSTAT1 inhibition in hPBMC. Here is the method: Phosphorylation Inhibition of STAT in Human PBMC and Human Whole Blood Testing:
The inhibitory potential of test articles in human PBMC and human whole blood assay was evaluated by the method of flow cytometry.
IFN-alpha will activate JAK1 and TYK2 kinase in T cells by binding to IFN receptors, and then lead to phosphorylation of STAT1 and STAT2. The phosphorylated STAT1 enter nuclear and promote transcription and expression of IFN-gamma. To evaluate the efficacy of TYK2i in T cells, freshly prepared human PBMC or freshly collected human whole blood will be stimulated with certain unit of human IFN-alpha (Universal Type I IFN(1MU), R&D, 11200-2) for 20 mins in incubator. After stimulation, fix cells with Phosflow™ Fix Buffer I (BD, 557870), and then collect fixed cells by centrifugation (500 g, 8 min). Wash cells once with pre-cooled PBS, and then permeabilize cells with cold Perm Buffer III buffer (BD, 558050) for 45 mins on ice. Collect cells by centrifugation (600 g, 8 min) and washed twice with cold PBS. Stain cells with anti-human CD3 (FITC Mouse Anti-Human CD3, BD, 555332) and anti-pSTAT1_Y701(Alexa Fluor 647 Mouse Anti-Stat1 (pY701), BD, 612597) antibodies. Detect pSTAT1 by flow cytometry (CytoFlex S) and analyze data with FlowJo and GraphPad Prism 8 software. IC50 values of test articles were determined using 4-parameter logistic equation.

Another data set deals with T2, TYK2-JH2 domain (Homo sapiens, UniProt P29597).
T2 construct: IC50 on JH2 domain activity (nM)
T2 sequence (P29597 589-875 limits assumed): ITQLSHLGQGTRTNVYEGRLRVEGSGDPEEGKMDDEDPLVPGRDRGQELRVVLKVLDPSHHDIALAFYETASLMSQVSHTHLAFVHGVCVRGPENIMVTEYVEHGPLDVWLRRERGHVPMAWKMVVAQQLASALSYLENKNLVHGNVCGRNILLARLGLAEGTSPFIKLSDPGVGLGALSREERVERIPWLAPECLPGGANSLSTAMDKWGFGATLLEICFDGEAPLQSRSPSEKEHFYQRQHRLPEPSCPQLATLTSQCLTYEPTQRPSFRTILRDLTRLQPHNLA
Nature of the data set: Binding activity test for JH2 domain of TYK2 (Tb-antibody/tracer FRET). The settings on record: for JAK1/TYK2 selectivity: ratio JAK1-JH2 IC50 / TYK2-JH2 IC50. The procedure, abridged:
(§1)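 Compounds tested as 11-point 3-fold serial dilutions against the JH2 domain in a Tb-antibody/tracer FRET binding format. Plates incubated 60 min at 25° C, then overnight at 4° C, before FRET reading.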

Data set [4] is described as follows: Plasma protein binding by equilibrium dialysis. The class given is in vitro ADME. Conditions: human plasma, equilibrium dialysis 5 hours at 37° C.; read-out: % Bound (human) (converted). The procedure, abridged:
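Compound spiked into plasma at 0.2 and 2 μM was dialyzed against PBS for 5 h at 37° C with shaking, in duplicate. Plasma and buffer chambers were matrix-matched, protein-precipitated and analysed by LC-MS/MS to derive % unbound, % bound and % recovery.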

Data set [5] is described as follows: Microsomal metabolic stability assay. The class given is in vitro ADME. Conditions: pH 7.4, 0.5 mg/mL protein, 1 μM compound. The procedure, abridged:
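Test article at 1 μM with 0.5 mg/mL microsomal protein and 2 mM NADPH, in 100 mM potassium phosphate pH 7.4 with 1.0 mM EDTA at 37 °C. Sampled at 0–45 min and quantified by LC/MS/MS. T1/2 from the slope of ln % remaining vs time.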

A short description of data set [6]: Hepatocytes metabolic stability assay. The class given is in vitro ADME. The settings on record: cryopreserved hepatocytes, human hepatocytes, 1.0×10^6 cells/mL; for CLint scaled at 1 μM: read-out: Human hepatocyte Clint(liver); for half-life at 1 μM: read-out: Human hepatocyte stability T1/2. The procedure, abridged: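 Cryopreserved hepatocytes (1.0×10^6 cells/mL final) were incubated with test compound at 1 μM at 37 °C and sampled at 0, 15, 30, 60 and 120 min, with acetonitrile quench and LC-MS/MS. k came from log-linear % remaining versus time, giving T1/2 and CLint.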

In another data set the target is T3, JAK1-JH2 domain (Homo sapiens, UniProt P23458).
T3 construct: IC50 on JH2 domain activity (nM)
T3 sequence (P23458 583-855 limits assumed): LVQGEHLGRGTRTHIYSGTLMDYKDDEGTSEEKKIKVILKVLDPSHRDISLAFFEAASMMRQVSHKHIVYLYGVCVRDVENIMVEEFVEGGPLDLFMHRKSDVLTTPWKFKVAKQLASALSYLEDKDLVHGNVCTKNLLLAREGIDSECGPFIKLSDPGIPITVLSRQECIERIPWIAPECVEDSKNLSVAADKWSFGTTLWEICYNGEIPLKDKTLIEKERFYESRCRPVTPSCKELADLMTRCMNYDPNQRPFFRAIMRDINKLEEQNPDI
Kind of data set: Binding activity test for JH2 domain of JAK1 (Tb-antibody/tracer FRET). The procedure, abridged:
as §1

[7] abbreviates: human whole blood, IFN-alpha 20 mins, CD3 cells.
Where [8] appears, read: human PBMC, IFN-alpha 20 mins, CD3 cells.
Setting [9] is: dog liver microsomes, read-out: Dog LM Clint.
Setting [10] is: dog liver microsomes, read-out: Dog LM T½.
The mark [11] stands for this setting: human liver microsomes, read-out: Human LM Clint.
Setting [12] is: human liver microsomes, read-out: Human LM T½.
[13] abbreviates: rat liver microsomes, read-out: Rat LM Clint.
Where [14] appears, read: rat liver microsomes, read-out: Rat LM T½.

T1 sequence (P29597 whole entry P760L): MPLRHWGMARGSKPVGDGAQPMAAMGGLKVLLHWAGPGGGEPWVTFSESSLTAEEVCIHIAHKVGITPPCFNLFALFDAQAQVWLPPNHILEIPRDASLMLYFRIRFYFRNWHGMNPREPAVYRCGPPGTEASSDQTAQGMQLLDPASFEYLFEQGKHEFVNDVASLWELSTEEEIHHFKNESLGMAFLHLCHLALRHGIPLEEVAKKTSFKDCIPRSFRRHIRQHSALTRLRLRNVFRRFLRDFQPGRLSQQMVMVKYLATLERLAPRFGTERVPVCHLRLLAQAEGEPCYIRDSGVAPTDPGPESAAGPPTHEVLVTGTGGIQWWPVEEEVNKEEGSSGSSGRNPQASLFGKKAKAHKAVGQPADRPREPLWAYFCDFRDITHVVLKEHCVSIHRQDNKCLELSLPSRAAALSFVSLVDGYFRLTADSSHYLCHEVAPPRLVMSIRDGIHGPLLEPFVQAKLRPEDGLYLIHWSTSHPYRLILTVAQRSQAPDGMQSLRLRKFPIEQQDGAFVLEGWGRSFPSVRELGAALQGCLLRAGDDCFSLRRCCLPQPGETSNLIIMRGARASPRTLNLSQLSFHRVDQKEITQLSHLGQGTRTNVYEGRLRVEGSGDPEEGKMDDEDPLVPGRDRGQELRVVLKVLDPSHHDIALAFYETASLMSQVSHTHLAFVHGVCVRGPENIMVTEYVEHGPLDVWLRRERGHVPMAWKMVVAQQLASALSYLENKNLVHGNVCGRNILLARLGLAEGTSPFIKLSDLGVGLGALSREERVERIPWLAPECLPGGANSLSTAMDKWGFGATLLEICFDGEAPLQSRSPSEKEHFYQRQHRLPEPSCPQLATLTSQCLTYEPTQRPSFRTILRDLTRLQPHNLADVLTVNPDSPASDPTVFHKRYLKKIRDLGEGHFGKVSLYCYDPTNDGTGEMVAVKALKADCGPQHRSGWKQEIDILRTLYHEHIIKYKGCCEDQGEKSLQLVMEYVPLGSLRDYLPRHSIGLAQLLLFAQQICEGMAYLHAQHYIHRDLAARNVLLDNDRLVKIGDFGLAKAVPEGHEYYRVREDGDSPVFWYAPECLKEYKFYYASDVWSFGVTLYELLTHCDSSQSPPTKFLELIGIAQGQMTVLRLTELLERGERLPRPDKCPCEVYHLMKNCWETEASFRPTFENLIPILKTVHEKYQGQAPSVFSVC

`[2H]C([2H])([2H])NC(=O)c1cnc(Nc2ccc(F)cn2)cc1Nc1cn(C)c2c(F)cn(CC)c(=O)c12` [Example 125, 4-((5-Ethyl-7-fluoro-1-methyl-4-oxo-4,5-dihydro-1H-pyrrolo[3,2-c]pyridin-3-yl)amino)-6-((5-fluoropyridin-2-yl)amino)-N-(methyl-d3)nicotinamide]: the GI50 in data set [1] came out at 31.9 nM. Besides, the IC50 (commonly the concentration that gives 50% inhibition) in the data set on pSTAT1 [2] (setting [7]) came to 581 nM; in the data set with pSTAT1 [3] (setting [8]), 75.7 nM; at TYK2-JH2 domain it was 1.44 nM.

`[2H]C([2H])([2H])NC(=O)c1cnc(NC(=O)C2CC2)cc1Nc1cn(CC2CC2)c2ncn(CC)c(=O)c12` [Example 213, 6-(Cyclopropanecarboxamido)-4-((7-(cyclopropylmethyl)-3-ethyl-4-oxo-4,7-dihydro-3H-pyrrolo[2,3-d]pyrimidin-5-yl)amino)-N-(methyl-d3)nicotinamide]: the GI50 in data set [1] was 74.5 nM. Besides, the half-inhibitory concentration (IC50) stood at 376 nM with pSTAT1 [2] (setting [7]), 107 nM with pSTAT1 [3] (setting [8]) and 0.25 nM at TYK2-JH2 domain. The fraction unbound at 5 h in data set [4] is 0.025.

For the molecule `[2H]C([2H])([2H])NC(=O)c1nnc2cc1Nc1cc(cc(-c3ncn(C)n3)c1OC)COCc1cc(F)cc(n1)N2` [Example 71, 19-Fluoro-10-methoxy-N-(methyl-d3)-11-(1-methyl-1H-1,2,4-triazol-3-yl)-15-oxa-2,4,5,8,21-pentaazatetracyclo[15.3.1.1^{3,7}.1^{9,13}]tricosa-1(21),3,5,7(23),9(22),10,12,17,19-nonaene-6-carboxamide], in data set [1], the GI50 was determined as 48.7 nM. The IC50 with pSTAT1 [2] (setting [7]) is 823 nM; with pSTAT1 [3] (setting [8]), 79.5 nM. Moreover, the microsomal CLint at 1 μM in data set [5] (setting [9]) worked out at 5.63 µL/min/mg; in data set [5] (setting [11]), 27.4 µL/min/mg; in data set [5] (setting [13]) it was 21.9 µL/min/mg. Moreover, the half-life at 1 μM in data set [5] (setting [10]) is 246 min; in data set [5] (setting [12]) it was 50.6 min; in data set [5] (setting [14]) it was 63.2 min.

In the case of `[2H]C([2H])([2H])NC(=O)c1cnc(NC(=O)C2CC2)cc1Nc1csc2cnn(CC)c(=O)c12` [Example 231, 6-(Cyclopropanecarboxamido)-4-((5-ethyl-4-oxo-4,5-dihydrothieno[2,3-d]pyridazin-3-yl)amino)-N-(methyl-d3)nicotinamide], the GI50 in data set [1] was found to be 65.9 nM. The IC50 is 14400 nM in the data set on pSTAT1 [2] (Homo sapiens); 3510 nM in the data set with pSTAT1 [3] (Homo sapiens, PBMC); 0.979 nM at TYK2-JH2 domain.

`[2H]C([2H])([2H])NC(=O)c1cnc2cc1Nc1cc(cc(-c3ncn(C4CC4)n3)c1OC)COCc1nc(ccc1F)N2` [Example 83, 11-(1-Cyclopropyl-1H-1,2,4-triazol-3-yl)-18-fluoro-10-methoxy-N-(methyl-d3)-15-oxa-2,4,8,21-tetraazatetracyclo[15.3.1.1^{3,7}.1^{9,13}]tricosa-1(20),3,5,7(23),9(22),10,12,17(21),18-nonaene-6-carboxamide]: the GI50 in data set [1] was found to be 38.7 nM. The results for the IC50 in the data set with pSTAT1 [2] (setting [7]) and in the data set on pSTAT1 [3] (setting [8]) were 1580 nM and 113 nM, respectively. The microsomal CLint at 1 μM was 26.7 µL/min/mg in data set [5] (setting [9]), less than 11.5 µL/min/mg in data set [5] (setting [11]) and less than 11.5 µL/min/mg in data set [5] (setting [13]). Further, the half-life at 1 μM in data set [5] (setting [10]) was 52 min; in data set [5] (setting [12]), greater than 120 min; in data set [5] (setting [14]), greater than 120 min.

`[2H]C([2H])([2H])NC(=O)c1nnc(NC(=O)C2CC2)cc1Nc1csc2ccn(CC)c(=O)c12` [Example 197, 6-(Cyclopropanecarboxamido)-N-(methyl-d3)-4-((5-ethyl-4-oxo-4,5-dihydrothieno[3,2-c]pyridin-3-yl)amino)pyridazine-3-carboxamide]: in data set [1], the GI50 turned out to be 54.3 nM. For the same molecule, the IC50 in the data set with pSTAT1 [2] (setting [7]) turned out to be 863 nM; with pSTAT1 [3] (setting [8]), 428 nM. Also, the microsomal CLint at 1 μM in data set [5] (setting [9]) amounted to 20.8 µL/min/mg; in data set [5] (setting [11]), 77.7 µL/min/mg; in data set [5] (setting [13]), 290 µL/min/mg. The half-life at 1 μM in data set [5] (setting [10]) is 66.5 min; in data set [5] (setting [12]) it was 17.9 min; in data set [5] (setting [14]), 4.79 min; in data set [6] it was greater than 240 min. Also, the CLint scaled at 1 μM in data set [6] was less than 7.35 mL/min/kg.

As to `[2H]C([2H])([2H])NC(=O)c1cnc(NC(=O)C2CC2)cc1Nc1ccn2ncc(CC)c2c1OC` [Example 166, 6-(Cyclopropanecarboxamido)-4-((3-ethyl-4-methoxypyrazolo[1,5-a]pyridin-5-yl)amino)-N-(methyl-d3)nicotinamide], the GI50 in data set [1] was found to be 51.6 nM. Moreover, the IC50 in the data set with pSTAT1 [2] (setting [7]) came to 471 nM; in the data set with pSTAT1 [3] (setting [8]), 20.7 nM; at TYK2-JH2 domain it was 0.154 nM; on JAK1-JH2 domain, 13.6 nM. Further, the JAK1/TYK2 selectivity at TYK2-JH2 domain is reported as 88.3. Moreover, in data set [6], the CLint scaled at 1 μM came to 11.2 mL/min/kg. Besides, in data set [6], the half-life at 1 μM was found to be 157 min.

On to `[2H]C([2H])([2H])NC(=O)c1cnc(NC(=O)C2CC2)cc1Nc1ccn2ncc(C)c2c1OC` [Example 169, 6-(Cyclopropanecarboxamido)-4-((4-methoxy-3-methylpyrazolo[1,5-a]pyridin-5-yl)amino)-N-(methyl-d3)nicotinamide], for which the GI50 in data set [1] worked out at 64.9 nM. The IC50 in the data set with pSTAT1 [2] (setting [7]) was 422 nM; with pSTAT1 [3] (setting [8]), 35.1 nM; on TYK2-JH2 domain it was 0.31 nM; on JAK1-JH2 domain, 8.76 nM. Besides, at TYK2-JH2 domain, the JAK1/TYK2 selectivity was 28.3. Also, the CLint scaled at 1 μM in data set [6] came out at 8.6 mL/min/kg. For the same molecule, the half-life at 1 μM in data set [6] was determined as 206 min.

Regarding `[2H]C([2H])([2H])NC(=O)c1nnc(NC(=O)C2CC2)cc1Nc1cn(C)c2ccn(CC)c(=O)c12` [Example 223, 6-(Cyclopropanecarboxamido)-4-((5-ethyl-1-methyl-4-oxo-4,5-dihydro-1H-pyrrolo[3,2-c]pyridin-3-yl)amino)-N-(methyl-d3)pyridazine-3-carboxamide], the GI50 in data set [1] worked out at 82.7 nM. For the same molecule, the IC50 was found to be 376 nM with pSTAT1 [2] (setting [7]) and 43.4 nM in the data set on pSTAT1 [3] (setting [8]).
